Molecular target: T1, NLRP3 inflammasome (Homo sapiens, UniProt Q96P20)
T1 construct: host or cells: THP1-Null cells (PMA-differentiated, LPS-primed, nigericin-stimulated)
Test: Evaluation of NLRP3 inflammasome inhibitory activity (inhibition of IL-1β production in THP1-Null cells)
Type: cell-based
Conditions: 0.5 µmol/L PMA overnight, 1 µg/mL Lipopolysaccharides 3 hours, Nigericin 7.5 µmol/L 1.5 hours, AlphaLISA Human IL-1β
Method: The NLRP3 inflammasome inhibitory activity of test compounds were evaluated on the basis of the inhibitory activity of the IL-1β production in THP1-Null cells (Product Number: thp-null, InvivoGen). Cells were maintained for culture in RPMI-1640 media containing 10% (v/v) fetal bovine serum, 25 mmol/L HEPES, 100 U/mL penicillin, 100 µg/mL streptomycin, 100 µg/mL normocin, and 200 µg/mL hygromycin B (set at 37°C, 5% CO2/95% air) .
Cells were suspended with media for assay containing 0.5 µmol/L PMA (RPMI-1640 media containing 10% (v/v) fetal bovine serum, 100 U/mL penicillin, and 100 µg/mL streptomycin), and the suspended cells were seeded on Corning (registered trademark) 384-well Flat Clear Bottom Black Polystyrene TC-treated Microplates (25,000 cells/25 µL/well), followed by incubation (set at 37°C, 5% CO2/95% air) overnight. The supernatant of the culture was removed, and thereto was added media for assay (25 µL/well) containing 1 µg/mL Lipopolysaccharides (Product Number: L2654, Sigma-Aldrich (registered trademark)). Then, the culture was further incubated for 3 hours (set at 37°C, 5% CO2/95% air) . The supernatant of the culture was removed. Then, a vehicle solution prepared from Opti-MEM (trademark) medium (Product Number: 31985-070, Invitrogen) was added to blank-setting wells and control-setting wells (20 µL/well), followed by incubation for 15 minutes (set at 37°C, 5% CO2/95% air). A solution containing a test compound (20 µL/well) was added to test compound-setting wells. Further, Opti-MEM (trademark) medium containing Nigericin (Product Number: N7143, Sigma-Aldrich (registered trademark)) was added to the control-setting wells and test compound-setting wells (5 µL/well), followed by incubation for 1.5 hours (set at 37°C, 5% CO2/95% air). The final concentration of Nigericin was adjusted to be 7.5 µmol/L. 5 µL/well of Opti-MEM (trademark) medium was added to the blank-setting wells. The supernatant of the culture was cryonically stored (set at -20°C) until measurement of IL-1β.
The amount of IL-1β in the culture supernatant was quantitated with AlphaLISA (registered trademark) Human IL-1β Detection Kit (Product Number: AL220C, Perkin Elmer). Fluorescence intensity was measured with a microplate reader EnSpier (Model number: 2300-00J, Perkin Elmer) or EnSight (Model number: HH34000000, Perkin Elmer) according to procedure manuals attached thereto. Inhibition rates of the test compound-setting wells were calculated on the basis of 100% for the blank-setting wells and 0% for the control-setting wells. IC50 values (i.e., 50% inhibitory concentrations) of the test compounds were calculated by logistic regression analysis.

T1 sequence (Q96P20 whole entry): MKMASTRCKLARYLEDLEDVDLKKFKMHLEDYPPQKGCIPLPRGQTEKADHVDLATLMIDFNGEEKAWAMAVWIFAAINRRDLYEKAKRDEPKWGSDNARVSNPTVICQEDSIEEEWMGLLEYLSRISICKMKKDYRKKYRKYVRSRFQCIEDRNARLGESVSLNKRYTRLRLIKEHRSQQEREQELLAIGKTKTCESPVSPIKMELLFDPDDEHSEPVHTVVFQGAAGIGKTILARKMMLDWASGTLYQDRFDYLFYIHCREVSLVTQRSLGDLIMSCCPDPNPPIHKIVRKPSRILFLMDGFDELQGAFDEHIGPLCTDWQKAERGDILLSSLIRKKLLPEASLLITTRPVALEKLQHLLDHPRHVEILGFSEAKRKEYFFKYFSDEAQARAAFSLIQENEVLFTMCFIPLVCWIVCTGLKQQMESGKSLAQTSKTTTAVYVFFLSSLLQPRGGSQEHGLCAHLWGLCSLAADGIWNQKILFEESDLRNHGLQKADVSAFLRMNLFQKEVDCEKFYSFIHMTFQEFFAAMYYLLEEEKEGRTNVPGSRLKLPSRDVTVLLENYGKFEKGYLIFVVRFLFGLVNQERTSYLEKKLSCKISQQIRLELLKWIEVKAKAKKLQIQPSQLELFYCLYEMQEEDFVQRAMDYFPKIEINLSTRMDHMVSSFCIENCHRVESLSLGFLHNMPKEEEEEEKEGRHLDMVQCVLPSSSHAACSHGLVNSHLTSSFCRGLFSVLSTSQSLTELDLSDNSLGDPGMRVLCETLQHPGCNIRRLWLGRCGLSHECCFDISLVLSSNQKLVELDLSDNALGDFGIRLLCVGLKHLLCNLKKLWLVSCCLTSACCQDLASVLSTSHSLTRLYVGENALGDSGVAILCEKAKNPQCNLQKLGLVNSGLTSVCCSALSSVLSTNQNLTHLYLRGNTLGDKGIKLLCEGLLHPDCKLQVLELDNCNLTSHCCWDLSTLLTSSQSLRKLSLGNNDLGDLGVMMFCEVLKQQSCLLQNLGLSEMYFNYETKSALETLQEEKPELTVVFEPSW

Structure (SMILES)	IC50 [nM]
COc1nc2nn(-c3ccc(Br)cc3C(O)C3CC3)cc2c(=O)[nH]1 (racemic) [Example 53]	160
COc1nc2nn(-c3c(C)cc(C4CC4(F)F)cc3C)cc2c(=O)[nH]1 (racemic) [Example 120]	88
COc1nc2nn(-c3ccccc3C)cc2c(=O)[nH]1 [Example 1]	4200
COc1nc2nn(-c3ccc(C)cc3C)cc2c(=O)[nH]1 [Example 2]	79
Cc1cc(C)c(-n2cc3c(=O)[nH]c(OCC4CC4)nc3n2)c(C)c1 [Example 3]	9
COCCOc1nc2nn(-c3c(C)cc(C)cc3C)cc2c(=O)[nH]1 [Example 4]	74
Cc1cc(C)c(-n2cc3c(=O)[nH]c(OC(C)C)nc3n2)c(C)c1 [Example 5]	34
Cc1cc(C)c(-n2cc3c(=O)[nH]c(OCC(F)(F)F)nc3n2)c(C)c1 [Example 6]	180
Cc1cc(C)c(-n2cc3c(=O)[nH]c(OCc4ccccc4)nc3n2)c(C)c1 [Example 7]	72
COc1nc2nn(-c3c(C)cc(C)cc3C)cc2c(=O)[nH]1 [Example 8]	37
CCOc1nc2nn(-c3c(C)cc(C)cc3C)cc2c(=O)[nH]1 [Example 9]	23
[2H]C([2H])([2H])Oc1nc2nn(-c3ccc(C(F)(F)F)cc3OC([2H])([2H])[2H])cc2c(=O)[nH]1 [Example 10]	61
COc1nc2nn(-c3ccc(Cl)cc3C)cc2c(=O)[nH]1 [Example 11]	50
COc1nc2nn(-c3c(C)cc(Br)cc3C)cc2c(=O)[nH]1 [Example 12, 2-(4-bromo-2,6-dimethylphenyl)-6-methoxy-2,5-dihydro-4H-pyrazolo[3,4-d]pyrimidin-4-one]	9
COc1cc(C)c(-n2cc3c(=O)[nH]c(OC)nc3n2)c(C)c1 [Example 13, 6-methoxy-2-(4-methoxy-2,6-dimethylphenyl)-2,5-dihydro-4H-pyrazolo[3,4-d]pyrimidin-4-one]	22
COc1nc2nn(-c3c(C)cc(C4CC4)cc3C)cc2c(=O)[nH]1 [Example 14]	8
COc1nc2nn(-c3c(Cl)cc(C(F)(F)F)cc3OC)cc2c(=O)[nH]1 [Example 15]	1300
Cc1cc(Br)cc(C)c1-n1cc2c(=O)[nH]c(OC3CCOCC3)nc2n1 [Example 16]	25
Cc1cc(Br)cc(C)c1-n1cc2c(=O)[nH]c(OCC3(C#N)CC3)nc2n1 [Example 17]	73
COCC1(COc2nc3nn(-c4c(C)cc(Br)cc4C)cc3c(=O)[nH]2)CC1 [Example 18]	34
Cc1cc(Br)cc(C)c1-n1cc2c(=O)[nH]c(OCCC(C)(C)O)nc2n1 [Example 20]	22
Cc1cc(Br)cc(C)c1-n1cc2c(=O)[nH]c(OCC(C)(C)O)nc2n1 [Example 21]	74
COc1nc2nn(-c3c(C)cc(C(F)(F)F)cc3C)cc2c(=O)[nH]1 [Example 22]	43

Structure (SMILES)	IC50 [nM]
COc1nc2nn(-c3c(C)cc(Br)cc3C)cc2c(=O)n1C [Example 23]	680
COc1ccc(-n2cc3c(=O)[nH]c(OC)nc3n2)c(C(F)(F)F)c1 [Example 24]	53
Cc1cc(Br)cc(C)c1-n1cc2c(=O)[nH]c(OCCN(C)C)nc2n1 [Example 25]	53
COc1nc2nn(-c3cc(C)c(Cl)cc3C)cc2c(=O)[nH]1 [Example 26]	1200
COc1nc2nn(-c3c(C)cc(C4(O)CCC4)cc3C)cc2c(=O)[nH]1 [Example 27]	990
COc1nc2nn(-c3c(C)cc(C4CC4)cc3F)cc2c(=O)[nH]1 [Example 28]	15
COc1nc2nn(-c3c(C)cc(C4CC4)cc3OC)cc2c(=O)[nH]1 [Example 29]	54
Cc1cc(Br)cc(C)c1-n1cc2c(=O)[nH]c(OCCC3COC3)nc2n1 [Example 30]	51
COc1nc2nn(-c3c(C)cc(C(C)(C)O)cc3C)cc2c(=O)[nH]1 [Example 31]	2400
COc1nc2nn(-c3ccc(Cl)c(C)c3C)cc2c(=O)[nH]1 [Example 32]	760
Cc1cc(Br)cc(C)c1-n1cc2c(=O)[nH]c(OC(C)C)nc2n1 [Example 33]	24
CCOc1nc2nn(-c3c(C)cc(Br)cc3C)cc2c(=O)[nH]1 [Example 34]	12
Cc1cc(Br)cc(C)c1-n1cc2c(=O)[nH]c(OCCCS(C)(=O)=O)nc2n1 [Example 35]	7
Cc1cc(Br)cc(C)c1-n1cc2c(=O)[nH]c(O[C@@H]3CCOC3)nc2n1 [Example 36]	19
Cc1cc(Br)cc(C)c1-n1cc2c(=O)[nH]c(O[C@H]3CCOC3)nc2n1 [Example 37]	13
Cc1cc(C2CC2)cc(C)c1-n1cc2c(=O)[nH]c(OCCCS(C)(=O)=O)nc2n1 [Example 38]	8
COc1nc2nn(-c3c(C)cc(OC(F)F)cc3C)cc2c(=O)[nH]1 [Example 39, 2-(4-(difluoromethoxy)-2,6-dimethylphenyl)-6-methoxy-2,5-dihydro-4H-pyrazolo[3,4-d]pyrimidin-4-one]	18
COc1nc2nn(-c3ccc(C4CC4)cc3OC)cc2c(=O)[nH]1 [Example 40]	49
COCc1cc(Br)ccc1-n1cc2c(=O)[nH]c(OC)nc2n1 [Example 41]	70
COCc1cc(C2CC2)ccc1-n1cc2c(=O)[nH]c(OC)nc2n1 [Example 42]	63
COc1nc2nn(-c3ccc(Br)cc3C(F)(F)F)cc2c(=O)[nH]1 [Example 43]	38
Cc1cc(Br)cc(C)c1-n1cc2c(=O)[nH]c(OC3CCS(=O)(=O)CC3)nc2n1 [Example 44]	43
COc1nc2nn(-c3ccc(C4CC4)cc3C(F)(F)F)cc2c(=O)[nH]1 [Example 45]	14

Structure (SMILES)	IC50 [nM]
Cc1cc(C2CC2)cc(C)c1-n1cc2c(=O)[nH]c(OC3CCS(=O)(=O)CC3)nc2n1 [Example 46]	33
COc1nc2nn(-c3ccc(Br)cc3C3CC3)cc2c(=O)[nH]1 [Example 47]	53
COc1ccc(-n2cc3c(=O)[nH]c(OC)nc3n2)c(C2CC2)c1 [Example 48]	190
CCOc1nc2nn(-c3ccc(OC)cc3Br)cc2c(=O)[nH]1 [Example 49]	73
CCOc1nc2nn(-c3c(C)cc(C4CC4)cc3C)cc2c(=O)[nH]1 [Example 50]	10
CCOc1nc2nn(-c3c(C)cc(OC)cc3C)cc2c(=O)[nH]1 [Example 51]	27
Cc1cc(Br)cc(C)c1-n1cc2c(=O)[nH]c(OC3CCC(S(C)(=O)=O)CC3)nc2n1 (centres unmarked) [Example 52]	59
CCOc1nc2nn(-c3c(C)cc(OC(F)F)cc3C)cc2c(=O)[nH]1 [Example 54]	13
COc1nc2nn(-c3ccc(Cl)cc3CC3CC3)cc2c(=O)[nH]1 [Example 55]	70
COc1nc2nn(-c3ccc(C4CC4)cc3C3CC3)cc2c(=O)[nH]1 [Example 56]	18
COc1nc2nn(-c3c(C)cc(Cl)cc3C)cc2c(=O)[nH]1 [Example 57]	58
Cc1cc(Br)cc(C)c1-n1cc2c(=O)[nH]c(OCCCS(=O)(=O)C(C)C)nc2n1 [Example 58]	6
COc1nc2nn(-c3ccc(Br)cc3C(F)F)cc2c(=O)[nH]1 [Example 59]	55
COc1nc2nn(-c3ccc(C4CC4)cc3C(F)F)cc2c(=O)[nH]1 [Example 60]	16
COc1nc2nn(-c3c(C)cc(OC(F)(F)F)cc3C)cc2c(=O)[nH]1 [Example 61]	69
Cc1cc(C2CC2)cc(C)c1-n1cc2c(=O)[nH]c(OCCCS(=O)(=O)C(C)C)nc2n1 [Example 62]	4
COc1nc2nn(-c3ccc(OC(F)F)cc3C(F)(F)F)cc2c(=O)[nH]1 [Example 63]	80
Cc1cc(Br)cc(C)c1-n1cc2c(=O)[nH]c(OCCCS(=O)(=O)C(C)(C)C)nc2n1 [Example 64]	7
COc1nc2nn(-c3c(C)cc(C(F)F)cc3C)cc2c(=O)[nH]1 [Example 65]	140
COc1nc2nn(-c3c(C)cc(OC(F)F)cc3F)cc2c(=O)[nH]1 [Example 66]	78
Cc1cc(Br)cc(C)c1-n1cc2c(=O)[nH]c(OCC(F)F)nc2n1 [Example 67]	43
Cc1cc(C2CC2)cc(C)c1-n1cc2c(=O)[nH]c(OCC(F)F)nc2n1 [Example 68]	25

— patent publication EP4671246A1, “6-ALKOXYPYRAZOLOPYRIMIDINE COMPOUND AND PHARMACEUTICAL USE THEREOF” (Japan Tobacco Inc., priority 2023, dated 2024)
